Assay results from patent publication US20050119288A1, “Dosing schedule for a novel anticancer agent” (Pfizer Inc, priority 2003, published 2005).

Columns and labels:
[1] = biological target: erbB2 receptor autophosphorylation (Homo sapiens, UniProt P04626); test: p-erbB2 reduction in MDA-MB-453 tumors by ELISA; type: in vivo
Procedure: (§1) Study Design: Exponentially growing MDA-MB-453 cells (DMEM/F12 with 10% FBS, and pen/strep [Gibco]) were harvested and inoculated SC (5 million cells/animal) into female athymic mice. MDA-MB-453 tumor bearing mice (˜100 mm^3 in size, N=64) were randomized in 8 groups consisting 8 animals each. Animals were treated with vehicle (PO, QD or BID) or the test compound (PO, QD or BID) as described in Table 6. The tumor measurements and body weight changes were obtained on days 1, 3, 7, 10, 14, 17, 21, 24, and 29. Tumor volume was calculated by the following formula: Tumor volume (mm^3)═(W×W)/2×L (L=length & W=width). Blood samples (˜50 μl) were isolated at 0.5, 1, 2, 4 and 8 hrs after dosing on day 29 for PK-analysis. Tumors were isolated at 0.5 hr post-dosing on day 29 for PD-analysis by ELISA.

[2] = Pharmacokinetics in SK-OV-3 tumor-bearing mice; type: in vivo; details: for Cave0-4 h / AUC(0-t) / Cmax: PO; for AUC(0-t) / Cmax: female, athymic, mouse, blood, po; for AUC(0-t): read-out: AUC0-4 h; for Cmax: read-out: Cmax 0.5 h
Procedure: (§2) SK-OV-3 cells obtained from ATCC (Rockville, Md.) were grown in McCoy's medium containing 10% fetal bovine serum and pen/strep. Exponentially growing cells were harvested and inoculated SC (5 million cells/animal) into female athymic mice. The tumor measurements and body weight changes were obtained on days 1, 3, 6, 10, 13 and 18. Tumor volume was calculated by the following formula: Tumor volume (mm^3)═(W×W)/2×L (L=length & W=width). Blood samples (˜50 μl) were isolated at 0.5, 1, 2, 4 and 8 hrs after dosing on day 18 for PK-analysis. Tumors were isolated at 0.5 hr post-dosing on day 18 for PD-analysis by ELISA. The p-erbB2 reduction, tumor volume and body weight changes in control and test compound treated animals are shown below in Table 2.

SK-OV-3 tumors = test: SK-OV-3 xenograft tumor growth in athymic mice; type: in vivo, human; details: for % Growth inhibition / Tumor volume Day 1 (Mean ± SE) / Tumor volume Day 18 (Mean ± SE): PO
From the text: The in vivo anti-tumor activity of the compounds for use in the methods of the present invention can be determined by the amount of inhibition of tumor growth by a test compound relative to a control. The tumor growth inhibitory effects of various compounds can be measured according to the method of Corbett T. H., et al., “Tumor Induction Relationships in Development of Transplantable Cancers of the Colon in Mice for Chemotherapy Assays, with a Note on Carcinogen Structure”, Cancer Res., 35, 2434-2439 (1975) and Corbett T. H., et al., “A Mouse Colon-tumor Model for Experimental Therapy”, Cancer Chemother. Rep. (Part 2)”, 5, 169-186 (1975), with slight modifications. Tumors can be induced in the left flank of mice by subcutaneous (sc) injection of 1-5 million log phase cultured tumor cells suspended in 0.1 ml RPMI 1640 medium. After sufficient time has elapsed for the tumors to become palpable (˜100-150 mm^3 in size/5-6 mm in diameter) the test animals (athymic female mice) are treated with test compound (formulated at a concentration of 10 to 15 mg/ml in 5 Gelucire or 0.5% methyl cellulose) by the intravenous (iv) or oral (po) route of administration once or twice daily for 7 to 29 consecutive days. In order to determine an anti-tumor effect, the tumor is measured in millimeters with a Vernier caliper across two diameters and the tumor size (mm^3) is calculated using the formula: Tumor size (mm^3)=(W×W)/2×L (L=length and W=width), according to the methods of Geran, R. I., et al. “Protocols for Screening Chemical Agents and Natural Products Against Animal Tumors and Other Biological Systems”, Third Edition, Cancer Chemother. Rep., 3, 1-104 (1972). Results are expressed as percent inhibition, according to the formula: Inhibition Growth (%)=[100-{(% Growth of Treated/% Growth of Control)×100}]. The flank site of tumor implantation provides reproducible dose/response effects for a variety of chemotherapeutic agents, and the method of measurement (tumor diameter) is a reliable method for assessing tumor growth rates.
as §2

in vivo = details: athymic, mouse, plasma
Procedure: The test compound was either administered using tail vein infusion or orally.
A 1.15 mg/ml solution of the test compound was infused IV at 550 μl/hr for 2 minute ramped infusions followed by 50 μl/hr for 15 min or 4 hour daily infusions. (Projection was based on Cl of the test compound). Athymic female mice bearing FRE/erbB2 tumors (˜100 mm^3 in size) were treated with vehicle, the test compound orally or the test compound intravenously. […] The study was carried out for 7 days. Plasma and tumor samples were isolated for PK and PD analysis at the termination of study.

[3] = Body weight and tolerability, MDA-MB-453 study; type: in vivo, mice; details: PO
Procedure: as §1

Sequence of erbB2 receptor autophosphorylation (P04626 23-1255): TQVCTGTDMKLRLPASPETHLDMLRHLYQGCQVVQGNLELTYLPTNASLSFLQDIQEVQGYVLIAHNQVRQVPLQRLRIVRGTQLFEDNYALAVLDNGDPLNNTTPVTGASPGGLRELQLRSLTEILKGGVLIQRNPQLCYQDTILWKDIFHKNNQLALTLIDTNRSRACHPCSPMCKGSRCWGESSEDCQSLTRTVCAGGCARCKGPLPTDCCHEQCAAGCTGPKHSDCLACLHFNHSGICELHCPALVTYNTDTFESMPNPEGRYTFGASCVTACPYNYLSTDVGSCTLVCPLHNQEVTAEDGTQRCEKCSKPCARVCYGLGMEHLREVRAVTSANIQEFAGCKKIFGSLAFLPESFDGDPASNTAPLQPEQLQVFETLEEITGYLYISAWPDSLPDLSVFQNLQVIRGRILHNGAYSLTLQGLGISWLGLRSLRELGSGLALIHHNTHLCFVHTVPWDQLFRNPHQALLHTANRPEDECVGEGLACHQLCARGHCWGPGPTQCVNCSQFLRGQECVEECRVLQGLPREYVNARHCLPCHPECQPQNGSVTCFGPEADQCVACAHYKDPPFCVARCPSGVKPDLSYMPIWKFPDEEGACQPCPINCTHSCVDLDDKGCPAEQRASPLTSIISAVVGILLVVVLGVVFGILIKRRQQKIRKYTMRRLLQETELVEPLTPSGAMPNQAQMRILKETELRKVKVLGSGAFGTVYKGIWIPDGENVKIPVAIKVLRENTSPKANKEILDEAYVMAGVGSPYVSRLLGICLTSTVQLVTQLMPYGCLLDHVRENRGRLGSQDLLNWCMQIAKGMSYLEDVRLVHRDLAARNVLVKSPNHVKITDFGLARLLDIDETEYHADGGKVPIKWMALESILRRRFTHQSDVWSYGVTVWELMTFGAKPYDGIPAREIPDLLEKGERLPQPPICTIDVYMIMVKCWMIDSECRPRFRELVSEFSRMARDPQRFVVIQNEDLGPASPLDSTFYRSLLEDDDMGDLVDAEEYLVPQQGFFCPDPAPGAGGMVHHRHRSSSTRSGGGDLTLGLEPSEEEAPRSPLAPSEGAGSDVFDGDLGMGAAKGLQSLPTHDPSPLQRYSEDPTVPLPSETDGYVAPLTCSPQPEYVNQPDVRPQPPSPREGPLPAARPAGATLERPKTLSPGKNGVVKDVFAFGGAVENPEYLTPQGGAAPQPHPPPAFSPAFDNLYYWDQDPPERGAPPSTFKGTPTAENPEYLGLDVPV

COCC(=O)NC/C=C/c1ccc2ncnc(Nc3ccc(Oc4ccc(C)nc4)c(C)c3)c2c1 [Test Compound, E-2-Methoxy-N-(3-{4-(3-methyl-4-(6-methyl-pyridin-3-yloxy)-phenylamino)-quinazolin-6-yl}-allyl)-acetamide]
inhibition in vivo at 25 mg/kg ([1]; MDA-MB-453, po, 0.5 h, PO, BID 25 mg/kg (Total Daily Dose = 50 mg/kg), 0.5 hr post-dosing on day 29): 69% | inhibition in vivo at 50 mg/kg ([1]; MDA-MB-453, po, 0.5 h, PO, BID 50 mg/kg (Total Daily Dose = 100 mg/kg), 0.5 hr post-dosing on day 29): 75% | inhibition in vivo at 100 mg/kg ([1]; MDA-MB-453, po, 0.5 h, PO, BID 100 mg/kg (Total Daily Dose = 200 mg/kg), 0.5 hr post-dosing on day 29): 79% | inhibition in vivo at 50 mg/kg ([1]; MDA-MB-453, po, 0.5 h, PO, QD 50 mg/kg, 0.5 hr post-dosing on day 29): 78% | inhibition in vivo at 100 mg/kg ([1]; MDA-MB-453, po, 0.5 h, PO, QD 100 mg/kg, 0.5 hr post-dosing on day 29): 88% | inhibition in vivo at 200 mg/kg ([1]; MDA-MB-453, po, 0.5 h, PO, QD 200 mg/kg, 0.5 hr post-dosing on day 29): 92% | reduction of p-erbB2 ([1]; span over QD (50-200 mg/kg) and BID (25-100 mg/kg) dosings): 69-92% | Cave0-4 h ([2]; 25 mg/kg, BID, day 18): 390 ng/mL | AUC0-4 h and Cave0-4 h, QD group compared to BID dosed group ([2]; 50 mg/kg QD vs 25 mg/kg BID, day 18): approximately 2 fold | Cave0-4 h ([2]; 50 mg/kg, BID, day 18): 1050 ng/mL | Cave0-4 h ([2]; 50 mg/kg, QD, day 18): 853 ng/mL | Cave0-4 h ([2]; 100 mg/kg, BID, day 18): 2330 ng/mL | Cave0-4 h ([2]; 100 mg/kg, QD, day 18): 4080 ng/mL | Oral absorption ([2]; 200 mg/kg QD dosing): non-linear | Cave0-4 h ([2]; 200 mg/kg, QD, day 18): 3780 ng/mL | Cmax, 50 mg/kg QD compared to 25 mg/kg BID ([2]; day 18): approximately 2 fold | AUC(0-t) ([2]; 25 mg/kg, BID, day 18): 1560 ng·h/mL | Cmax ([2]; 25 mg/kg, BID, day 18): 1780 ng/mL | AUC(0-t) ([2]; 50 mg/kg, BID, day 18): 4180 ng·h/mL | Cmax ([2]; 50 mg/kg, BID, day 18): 3880 ng/mL | AUC(0-t) ([2]; 50 mg/kg, QD, day 18): 3410 ng·h/mL | Cmax ([2]; 50 mg/kg, QD, day 18): 3640 ng/mL | AUC(0-t) ([2]; 100 mg/kg, BID, day 18): 9330 ng·h/mL | Cmax ([2]; 100 mg/kg, BID, day 18): 8060 ng/mL | AUC(0-t) ([2]; 100 mg/kg, QD, day 18): 16300 ng·h/mL | Cmax ([2]; 100 mg/kg, QD, day 18): 12100 ng/mL | AUC(0-t) ([2]; 200 mg/kg, QD, day 18): 15100 ng·h/mL | Cmax ([2]; 200 mg/kg, QD, day 18): 10200 ng/mL | tumor growth inhibition, 100 mg/kg BID relative to 200 mg/kg QD (SK-OV-3 tumors; 18 days): 2 fold | % Growth inhibition (SK-OV-3 tumors; BID 25 mg/kg (Total Daily Dose = 50 mg/kg), 18 days): 29% | % Growth inhibition (SK-OV-3 tumors; BID 25 mg/kg (Total Daily Dose = 50 mg/kg), 18 days, listed as test compound): Approximately 29% | Tumor volume Day 1 (Mean ± SE) (SK-OV-3 tumors; BID 25 mg/kg): 93 ± 12 mm^3 | Tumor volume Day 18 (Mean ± SE) (SK-OV-3 tumors; BID 25 mg/kg): 281 ± 42 mm^3 | % Growth inhibition (SK-OV-3 tumors; BID 50 mg/kg (Total Daily Dose = 100 mg/kg), 18 days): 45% | Tumor volume Day 1 (Mean ± SE) (SK-OV-3 tumors; BID 50 mg/kg): 94 ± 13 mm^3 | Tumor volume Day 18 (Mean ± SE) (SK-OV-3 tumors; BID 50 mg/kg): 218 ± 38 mm^3 | % Growth inhibition (SK-OV-3 tumors; BID 100 mg/kg (Total Daily Dose = 200 mg/kg), 18 days): 71% | Tumor volume Day 1 (Mean ± SE) (SK-OV-3 tumors; BID 100 mg/kg): 94 ± 13 mm^3 | Tumor volume Day 18 (Mean ± SE) (SK-OV-3 tumors; BID 100 mg/kg): 115 ± 24 mm^3 | % Growth inhibition (SK-OV-3 tumors; QD 50 mg/kg, 18 days): 2% | % Growth inhibition (SK-OV-3 tumors; QD 50 mg/kg, 18 days, listed as test compound): non-efficacious | Tumor volume Day 1 (Mean ± SE) (SK-OV-3 tumors; QD 50 mg/kg): 98 ± 14 mm^3 | Tumor volume Day 18 (Mean ± SE) (SK-OV-3 tumors; QD 50 mg/kg): 390 ± 38 mm^3 | % Growth inhibition (SK-OV-3 tumors; QD 100 mg/kg, 18 days): 23% | Tumor volume Day 1 (Mean ± SE) (SK-OV-3 tumors; QD 100 mg/kg): 97 ± 14 mm^3 | Tumor volume Day 18 (Mean ± SE) (SK-OV-3 tumors; QD 100 mg/kg): 306 ± 36 mm^3 | % Growth inhibition (SK-OV-3 tumors; QD 200 mg/kg, 18 days): 36% | Tumor volume Day 1 (Mean ± SE) (SK-OV-3 tumors; QD 200 mg/kg): 98 ± 14 mm^3 | Tumor volume Day 18 (Mean ± SE) (SK-OV-3 tumors; QD 200 mg/kg): 254 ± 39 mm^3 | AUC(0-t) (in vivo): ~985 ng·h/mL | Cmax (in vivo): ~1200 ng/mL | concentration at 7 days (in vivo; female, intravenous, 1.4 mg/kg): 448 ± 141 ng/mL | concentration at 0.5 h (in vivo; female, oral, 25 mg/kg): 1460 ng/mL | average body weight Day 1 ([3]; BID 25 mg/kg): 22 g | average body weight Day 29 ([3]; BID 25 mg/kg): 23 g | average body weight Day 1 ([3]; BID 50 mg/kg): 23 g | average body weight Day 29 ([3]; BID 50 mg/kg): 24 g | average body weight Day 1 ([3]; BID 100 mg/kg): 23 g | average body weight Day 29 ([3]; BID 100 mg/kg): 25 g | average body weight Day 1 ([3]; QD 50 mg/kg): 23 g | average body weight Day 29 ([3]; QD 50 mg/kg): 25 g | average body weight Day 1 ([3]; QD 100 mg/kg): 23 g | average body weight Day 29 ([3]; QD 100 mg/kg): 25 g | average body weight Day 1 ([3]; QD 200 mg/kg): 22 g | average body weight Day 29 ([3]; QD 200 mg/kg): 24 g | tolerability, body weight loss or animal mortality ([3]; QD or BID, 29 days): well tolerated and there was no body weight loss or animal mortality
